The values that follow come from patent US10758534B2 (Vertex Pharmaceuticals Incorporated, priority 2014, dated 2020).

The first test deals with T1, F508del (Homo sapiens, UniProt P13569, DEL508-508).
T1 construct: expressed in transfected cells
T1 sequence (P13569 with tags, fused parts or gaps DEL508-508): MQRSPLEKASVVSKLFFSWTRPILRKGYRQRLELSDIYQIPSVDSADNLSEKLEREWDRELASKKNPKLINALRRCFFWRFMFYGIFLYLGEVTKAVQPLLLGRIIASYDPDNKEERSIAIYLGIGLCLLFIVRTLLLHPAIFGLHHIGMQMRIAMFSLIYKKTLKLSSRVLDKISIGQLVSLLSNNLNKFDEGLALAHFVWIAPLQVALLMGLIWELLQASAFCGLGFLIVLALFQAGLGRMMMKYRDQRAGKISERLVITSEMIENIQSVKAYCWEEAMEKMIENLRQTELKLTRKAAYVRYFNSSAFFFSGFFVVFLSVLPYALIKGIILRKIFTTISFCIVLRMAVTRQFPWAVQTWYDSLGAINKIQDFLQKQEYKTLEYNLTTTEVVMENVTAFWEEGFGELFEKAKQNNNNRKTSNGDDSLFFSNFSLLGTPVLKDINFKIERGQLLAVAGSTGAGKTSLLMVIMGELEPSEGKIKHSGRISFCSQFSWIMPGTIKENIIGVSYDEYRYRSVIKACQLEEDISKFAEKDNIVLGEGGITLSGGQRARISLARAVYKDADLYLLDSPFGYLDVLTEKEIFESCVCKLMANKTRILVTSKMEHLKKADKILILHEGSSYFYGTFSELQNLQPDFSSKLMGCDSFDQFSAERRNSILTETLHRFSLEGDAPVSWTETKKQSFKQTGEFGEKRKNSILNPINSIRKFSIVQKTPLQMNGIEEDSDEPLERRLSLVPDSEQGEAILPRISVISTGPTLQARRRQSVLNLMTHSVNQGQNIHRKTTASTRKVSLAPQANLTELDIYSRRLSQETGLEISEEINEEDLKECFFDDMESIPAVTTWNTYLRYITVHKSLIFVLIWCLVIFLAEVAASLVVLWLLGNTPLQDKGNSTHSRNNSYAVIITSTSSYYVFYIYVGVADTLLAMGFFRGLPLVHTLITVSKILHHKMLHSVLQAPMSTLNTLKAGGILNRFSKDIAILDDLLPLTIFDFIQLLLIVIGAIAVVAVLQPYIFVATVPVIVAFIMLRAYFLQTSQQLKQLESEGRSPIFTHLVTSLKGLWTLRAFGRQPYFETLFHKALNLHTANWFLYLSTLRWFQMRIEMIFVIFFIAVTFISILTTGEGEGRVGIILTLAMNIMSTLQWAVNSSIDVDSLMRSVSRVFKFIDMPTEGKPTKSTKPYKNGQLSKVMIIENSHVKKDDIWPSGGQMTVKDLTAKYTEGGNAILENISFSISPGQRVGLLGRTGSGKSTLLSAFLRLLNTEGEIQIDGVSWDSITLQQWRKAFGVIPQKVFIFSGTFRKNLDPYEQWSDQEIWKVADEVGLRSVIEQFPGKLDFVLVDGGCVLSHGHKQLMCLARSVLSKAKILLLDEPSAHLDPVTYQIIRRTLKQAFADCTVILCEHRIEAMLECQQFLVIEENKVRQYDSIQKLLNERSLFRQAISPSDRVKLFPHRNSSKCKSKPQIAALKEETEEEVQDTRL
As to the kind of experiment: Protocol 2: FRET membrane potential optical assay (VIPR), identification of correction compounds. The test is classed as cell-based. Particulars: F508del CFTR modulator activity; compounds of Table 1; read-out: EC30. The procedure, abridged: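 Single-addition HTS format: F508del-expressing NIH3T3 cells pre-incubated 16 hrs at 37° C. ± compound, with 27° C. culture as positive control. Channel activation by forskolin 10 μM and genistein 20 μM upon switch to gluconate bath, pH 7.4; read-out is FRET-based depolarization signal.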
The term EC30 denotes the concentration needed for an effect of 30%. As to `COc1cccc(-c2ccc(C(=O)NS(=O)(=O)c3ccc[nH]c3=O)c(N3C[C@@H](C)CC3(C)C)n2)c1F` [Compound 2222, 6-(2-fluoro-3-methoxy-phenyl)-N-[(2-oxo-1H-pyridin-3-yl)sulfonyl]-2-[(4S)-2,2,4-trimethylpyrrolidin-1-yl]pyridine-3-carboxamide], the EC30 fell in the range of 3 to 10 µM.

Regarding `CCOc1ccc(F)c(-c2ccc(C(=O)NS(=O)(=O)c3cccnc3N)c(N3C[C@@H](C)CC3(C)C)n2)c1` [Compound 2149, N-[(2-amino-3-pyridyl)sulfonyl]-6-(5-ethoxy-2-fluoro-phenyl)-2-[(4S)-2,2,4-trimethylpyrrolidin-1-yl]pyridine-3-carboxamide], the EC30 is less than 3 µM. On the same count and under the same terms, for `C[C@@H]1CN(c2nc(-c3ccc(CO)cc3)ccc2C(=O)NS(=O)(=O)c2cccnc2N)C(C)(C)C1` [Compound 2590, N-[(2-amino-3-pyridyl)sulfonyl]-6-[4-(hydroxymethyl)phenyl]-2-[(4S)-2,2,4-trimethylpyrrolidin-1-yl]pyridine-3-carboxamide] the value was less than 3 µM; for `CCOC(=O)C1CCN(c2cccc(S(=O)(=O)NC(=O)c3cccnc3N3CC(C)CC3(C)C)n2)CC1` (centres unmarked) [Compound 2488, ethyl 1-[6-[[2-(2,2,4-trimethylpyrrolidin-1-yl)pyridine-3-carbonyl]sulfamoyl]-2-pyridyl]piperidine-4-carboxylate], less than 3 µM; for `CCC1(C)C[C@@H](C)CN1c1nc(-c2cc(F)cc(OCC(C)C)c2)ccc1C(=O)NS(=O)(=O)c1cccc(N)n1` (single isomer, unassigned) [Compound 2058, N-[(6-amino-2-pyridyl)sulfonyl]-2-(2-ethyl-2,4-dimethyl-pyrrolidin-1-yl)-6-(3-fluoro-5-isobutoxy-phenyl)pyridine-3-carboxamide], less than 3 µM. The same measure, in the same setting: for `CC1CN(c2ncccc2C(=O)NS(=O)(=O)c2cccc(Nc3ccccn3)n2)C(C)(C)C1` (centres unmarked) [Compound 2068, N—[[6-(2-pyridylamino)-2-pyridyl]sulfonyl]-2-(2,2,4-trimethylpyrrolidin-1-yl)pyridine-3-carboxamide] the value was less than 3 µM; for `COc1ccc(C)cc1-c1ccc(C(=O)NS(=O)(=O)c2cccnc2N)c(N2C[C@@H](C)CC2(C)C)n1` [Compound 2413, N-[(2-amino-3-pyridyl)sulfonyl]-6-(2-methoxy-5-methyl-phenyl)-2-[(4S)-2,2,4-trimethylpyrrolidin-1-yl]pyridine-3-carboxamide], less than 3 µM.

`COc1ccc(Cl)cc1COc1cccc(S(=O)(=O)NC(=O)c2cccnc2N2CC(C)CC2(C)C)n1` (centres unmarked) [Compound 2645, N—[[6-[(5-chloro-2-methoxy-phenyl)methoxy]-2-pyridyl]sulfonyl]-2-(2,2,4-trimethylpyrrolidin-1-yl)pyridine-3-carboxamide]: the EC30 is less than 3 µM. Same read-out and setting: next, `CCC(CC)N1CCN(c2cccc(S(=O)(=O)NC(=O)c3cccnc3N3CC(C)CC3(C)C)n2)CC1` (centres unmarked) [Compound 2565, N—[[6-[4-(1-ethylpropyl)piperazin-1-yl]-2-pyridyl]sulfonyl]-2-(2,2,4-trimethylpyrrolidin-1-yl)pyridine-3-carboxamide]: 3 to 10 µM. On the same count and under the same terms, next, `C[C@@H]1CN(c2nc(-c3ccccc3C#N)ccc2C(=O)NS(=O)(=O)c2cccnc2N)C(C)(C)C1` [Compound 2437, N-[(2-amino-3-pyridyl)sulfonyl]-6-(2-cyanophenyl)-2-[(4S)-2,2,4-trimethylpyrrolidin-1-yl]pyridine-3-carboxamide]: less than 3 µM.

Staying with this test, now noted: Table 3; compounds of Table 1 as modulators of CFTR activity; protocol not stated.
In the case of `Cc1cc(C)c(Oc2nc(C)ccc2C(=O)NS(=O)(=O)c2cccc(NC3CC3)n2)c(C)c1` [Compound 594, N-[[6-(cyclopropylamino)-2-pyridyl]sulfonyl]-6-methyl-2-(2,4,6-trimethylphenoxy)pyridine-3-carboxamide], the EC30 entry is “++ (“++” means between 3 uM and 10 uM)”. Consider `Cc1cccc(C)c1Cn1nc(C(C)(C)C)cc1C(=O)NS(=O)(=O)c1ccccc1F` [Compound 57, 5-tert-butyl-2-[(2,6-dimethylphenyl)methyl]-N-(2-fluorophenyl)sulfonyl-pyrazole-3-carboxamide], for which the EC30 entry was “+++ (“+++” means <3 uM)”. As for `Cc1cc(C)c(Cn2nc(C(C)(C)C)cc2C(=O)NS(=O)(=O)c2cccc(N)n2)c(C)c1` [Compound 173, N-[(6-amino-2-pyridyl)sulfonyl]-5-tert-butyl-2-[(2,4,6-trimethylphenyl)methyl]pyrazole-3-carboxamide], the EC30 entry was “++ (“++” means between 3 uM and 10 uM)”. Same read-out and setting: next, `Cc1cccc(C)c1Cn1nc(-c2ccsc2)cc1C(=O)NS(=O)(=O)c1ccccc1` [Compound 357, N-(benzenesulfonyl)-2-[(2,6-dimethylphenyl)methyl]-5-(3-thienyl)pyrazole-3-carboxamide]: “++ (“++” means between 3 uM and 10 uM)”; `Cc1cc(C)c(Oc2nc(C(C)(C)C)ccc2C(=O)NS(=O)(=O)c2ccncc2)c(C)c1` [Compound 117, 6-tert-butyl-N-(4-pyridylsulfonyl)-2-(2,4,6-trimethylphenoxy)pyridine-3-carboxamide]: “+++ (“+++” means <3 uM)”. Still for that read-out and setting: next, `CC(C)COc1cc(F)cc(-c2ccc(C(=O)NS(=O)(=O)c3cccc(N)n3)c(N3[C@H](C)CC[C@@H]3C)n2)c1` [Compound 171, N-[(6-amino-2-pyridyl)sulfonyl]-2-[(2S,5R)-2,5-dimethylpyrrolidin-1-yl]-6-(3-fluoro-5-isobutoxy-phenyl)pyridine-3-carboxamide]: “+++ (“+++” means <3 uM)”; `CC(C)COc1ccc(-c2ccc(C(=O)NS(=O)(=O)c3cccc(N)n3)c(N3CC(C)CC3(C)C)n2)cn1` (centres unmarked) [Compound 471, N-[(6-amino-2-pyridyl)sulfonyl]-6-(6-isobutoxy-3-pyridyl)-2-(2,2,4-trimethylpyrrolidin-1-yl)pyridine-3-carboxamide]: “+++ (“+++” means <3 uM)”; `Cc1cc(C)c(Oc2nc(-c3c[nH]nc3C(F)(F)F)ccc2C(=O)NS(=O)(=O)c2cccc(N)n2)c(C)c1` [Compound 582, N-[(6-amino-2-pyridyl)sulfonyl]-6-[3-(trifluoromethyl)-1H-pyrazol-4-yl]-2-(2,4,6-trimethylphenoxy)pyridine-3-carboxamide]: “++ (“++” means between 3 uM and 10 uM)”. The same measure, in the same setting: for `CC(C)COc1cc(F)cc(-c2ccc(C(=O)NS(=O)(=O)c3ccn[nH]3)c(N3CCc4ccccc43)n2)c1` [Compound 739, 6-(3-fluoro-5-isobutoxy-phenyl)-2-indolin-1-yl-N-(1H-pyrazol-5-ylsulfonyl)pyridine-3-carboxamide] the value was “++ (“++” means between 3 uM and 10 uM)”; for `Cc1ccc(Oc2nc(C(C)(C)C)ccc2C(=O)NS(=O)(=O)c2cccc(N)n2)c(C)c1` [Compound 204, N-[(6-amino-2-pyridyl)sulfonyl]-6-tert-butyl-2-(2,4-dimethylphenoxy)pyridine-3-carboxamide], “+++ (“+++” means <3 uM)”; for `Cc1cccc(C)c1Cn1nc(C(C)(C)C)cc1C(=O)NS(=O)(=O)c1cccc2c1ccn2C` [Compound 210, 5-tert-butyl-2-[(2,6-dimethylphenyl)methyl]-N-(1-methylindol-4-yl)sulfonyl-pyrazole-3-carboxamide], “+++ (“+++” means <3 uM)”.

Take `CC(C)Oc1ccc(-c2ccc(C(=O)NS(=O)(=O)c3cccc(N)n3)c(N3C(C)CC(c4ccccc4)C3C)n2)cn1` (centres unmarked) [Compound 601, N-[(6-amino-2-pyridyl)sulfonyl]-2-(2,5-dimethyl-3-phenyl-pyrrolidin-1-yl)-6-(6-isopropoxy-3-pyridyl)pyridine-3-carboxamide]: the EC30 result is “+++ (“+++” means <3 uM)”. Same read-out and setting: next, `CC(C)c1ccccc1Oc1nc(C(C)(C)C)ccc1C(=O)NS(=O)(=O)c1ccccc1` [Compound 147, N-(benzenesulfonyl)-6-tert-butyl-2-(2-isopropylphenoxy)pyridine-3-carboxamide]: “+++ (“+++” means <3 uM)”; `Cc1ccc(Oc2nc(-c3cc(F)cc(OCC(C)C)c3)ccc2C(=O)NS(=O)(=O)c2cccc(N)n2)c(C)c1` [Compound 590, N-[(6-amino-2-pyridyl)sulfonyl]-2-(2,4-dimethylphenoxy)-6-(3-fluoro-5-isobutoxy-phenyl)pyridine-3-carboxamide]: “+++ (“+++” means <3 uM)”; `CCC1CCN(c2nc(-c3ccc(OC(C)C)nc3)ccc2C(=O)NS(=O)(=O)c2cccc(N)n2)CC1` [Compound 619, N-[(6-amino-2-pyridyl)sulfonyl]-2-(4-ethyl-1-piperidyl)-6-(6-isopropoxy-3-pyridyl)pyridine-3-carboxamide]: “+++ (“+++” means <3 uM)”.

In the case of `Cc1ccc(-c2nc(C(C)(C)C)ccc2C(=O)NS(=O)(=O)c2cccc(N)n2)cc1` [Compound 58, N-[(6-amino-2-pyridyl)sulfonyl]-6-tert-butyl-2-(p-tolyl)pyridine-3-carboxamide], the EC30 result is “++ (“++” means between 3 uM and 10 uM)”. Consider `CC(C)COc1cc(F)cc(-c2ccc(C(=O)NS(=O)(=O)c3cccc(N)n3)c(N3C(C)CC(c4ccccc4)C3C)n2)c1` (centres unmarked) [Compound 711, N-[(6-amino-2-pyridyl)sulfonyl]-2-(2,5-dimethyl-3-phenyl-pyrrolidin-1-yl)-6-(3-fluoro-5-isobutoxy-phenyl)pyridine-3-carboxamide], for which the EC30 entry is reported as “+++ (“+++” means <3 uM)”. Still for that read-out and setting: for `Cc1cc(C)c(Cn2c(C(=O)NS(=O)(=O)c3ccccc3)cc3cc(Cl)ccc32)c(C)c1` [Compound 137, N-(benzenesulfonyl)-5-chloro-1-[(2,4,6-trimethylphenyl)methyl]indole-2-carboxamide] the value was “+++ (“+++” means <3 uM)”; for `Cc1cc(C)c(C(C)n2nc(C(C)(C)C)cc2C(=O)NS(=O)(=O)c2ccccc2)c(C)c1` (centres unmarked) [Compound 201, N-(benzenesulfonyl)-5-tert-butyl-2-[1-(2,4,6-trimethylphenyl)ethyl]pyrazole-3-carboxamide], “+++ (“+++” means <3 uM)”.
